Tested on: not listed separately
Assay: logP determination by HPLC (EEC Directive 79/831 Annex V.A8)
Format: physicochemical
Details: not given
Protocol: The logP values were determined in accordance with EEC Directive 79/831 Annex V.A8 by HPLC (gradient method, acetonitrile/0.1% aqueous phosphoric acid).

| chromatographic logP | SMILES |
| --- | --- |
| 3.3 | CNC(=O)C(=NOCF)c1ccccc1COc1ccn(-c2ccc(Cl)cc2)n1 [Example 2, 2-[2-({[1-(4-chlorophenyl)-1H-pyrazol-3-yl]oxy}methyl)phenyl]-2-[(fluoromethoxy)imino]-N-methylacetamide] |
| 3.86 | COC(=O)C(=NOCF)c1ccccc1COc1ccn(-c2ccc(Cl)cc2)n1 [Example 1, methyl 2-[2-({[1-(4-chlorophenyl)-1H-pyrazol-3-yl]oxy}methyl)phenyl]-2-[(fluoromethoxy)imino]acetate] |

Same assay, conditions: HPLC, gradient method, acetonitrile/0.1% aqueous phosphoric acid

| logP | SMILES |
| --- | --- |
| 3.43 | CNC(=O)C(=NOCF)c1ccccc1OCc1ccn(-c2cc(Cl)ccc2Cl)n1 [Example 36] |
| 3.31 | CNC(=O)C(=NOCF)c1ccccc1OCc1ccn(-c2cccc(Cl)c2Cl)n1 [Example 34] |
| 3.4 | COC(=O)C(=NOCF)c1ccccc1OCc1ccn(-c2ccccc2)n1 [Example 14] |
| 3.9 | COC(=O)C(=NOCF)c1ccccc1OCc1ccn(-c2cccc(Cl)c2Cl)n1 [Example 27] |
| 4.5 | COC(=O)C(=NOCF)c1ccccc1OCc1ccn(-c2cc(Cl)ccc2Cl)n1 [Example 29] |
| 4.09 | COC(=O)C(=NOCF)c1ccccc1OCc1ccn(-c2ccc(Cl)cc2Cl)n1 [Example 11] |
| 4.38 | COC(=O)C(=NOCF)c1ccccc1OCc1ccn(-c2ccc(C(C)C)cc2)n1 [Example 4] |
| 3.53 | COC(=O)C(=NOCF)c1ccccc1OCc1ccn(-c2ccccc2Cl)n1 [Example 8] |
| 4.63 | COC(=O)C(=NOCF)c1ccccc1OCc1ccn(-c2ccc(C(C)(C)C)cc2)n1 [Example 21] |
| 3.3 | CNC(=O)C(=NOCF)c1ccccc1OCc1ccn(-c2cccc(Cl)c2)n1 [Example 43] |
| 3.98 | COC(=O)C(=NOCF)c1ccccc1OCc1ccn(-c2cccc(Br)c2)n1 [Example 16] |
| 2.96 | CNC(=O)C(=NOCF)c1ccccc1OCc1ccn(-c2ccccc2Cl)n1 [Example 22] |
| 2.83 | CNC(=O)C(=NOCF)c1ccccc1OCc1ccn(-c2ccccc2)n1 [Example 18] |
| 2.93 | CNC(=O)C(=NOCF)c1ccccc1OCc1ccn(-c2ccccc2F)n1 [Example 32] |
| 3.88 | COC(=O)C(=NOCF)c1ccccc1OCc1ccn(-c2cccc(Cl)c2)n1 [Example 37] |
| 3.52 | COC(=O)C(=NOCF)c1ccccc1OCc1ccn(-c2ccc(F)cc2F)n1 [Example 26] |
| 3.92 | COC(=O)C(=NOCF)c1ccccc1OCc1ccn(-c2ccc(C)c(C)c2)n1 [Example 28] |
| 2.91 | CNC(=O)C(=NOCF)c1ccccc1OCc1ccn(-c2ccc(F)cc2)n1 [Example 3] |

| logP | SMILES |
| --- | --- |
| 3.5 | CNC(=O)C(=NOCF)c1ccccc1OCc1ccn(-c2ccc(Cl)cc2Cl)n1 [Example 19] |
| 3.39 | CNC(=O)C(=NOCF)c1ccccc1OCc1ccn(-c2cccc(Br)c2)n1 [Example 5] |
| 3.02 | CNC(=O)C(=NOCF)c1ccccc1OCc1ccn(-c2ccc(F)cc2F)n1 [Example 33] |
| 3.93 | CNC(=O)C(=NOCF)c1ccccc1OCc1ccn(-c2cc(Cl)cc(Cl)c2)n1 [Example 7] |
| 3.4 | CNC(=O)C(=NOCF)c1ccccc1OCc1ccn(-c2ccc(Br)cc2)n1 [Example 6] |
| 3.18 | COC(=O)C(=NOCF)c1ccccc1OCc1ccn(-c2ccc(C#N)cc2)n1 [Example 9] |
| 3.73 | COC(=O)C(=NOCF)c1ccccc1OCc1ccn(-c2cccc(C)c2)n1 [Example 30] |
| 3.74 | COC(=O)C(=NOCF)c1ccccc1OCc1ccn(-c2ccc(C)cc2)n1 [Example 10] |
| 3.54 | COC(=O)C(=NOCF)c1ccccc1OCc1ccn(-c2ccccc2Br)n1 [Example 12] |
| 4.04 | CNC(=O)C(=NOCF)c1ccccc1OCc1ccn(-c2ccc(C(C)(C)C)cc2)n1 [Example 23] |
| 3.47 | COC(=O)C(=NOCF)c1ccccc1OCc1ccn(-c2ccc(F)cc2)n1 [Example 17] |
| 3.51 | COC(=O)C(=NOCF)c1ccccc1OCc1ccn(-c2ccccc2F)n1 [Example 25] |
| 3.14 | CNC(=O)C(=NOCF)c1ccccc1OCc1ccn(-c2ccc(C)cc2)n1 [Example 41] |
| 4.52 | COC(=O)C(=NOCF)c1ccccc1OCc1ccn(-c2cc(Cl)cc(Cl)c2)n1 [Example 15] |
| 2.64 | CNC(=O)C(=NOCF)c1ccccc1OCc1ccn(-c2ccc(C#N)cc2)n1 [Example 42] |
| 3.15 | CNC(=O)C(=NOCF)c1ccccc1OCc1ccn(-c2cccc(C)c2)n1 [Example 31] |
| 3.98 | COC(=O)C(=NOCF)c1ccccc1OCc1ccn(-c2ccc(Br)cc2)n1 [Example 13] |
| 3.83 | CNC(=O)C(=NOCF)c1ccccc1OCc1ccn(-c2ccc(C(C)C)cc2)n1 [Example 38] |

Tested on: Puccinia recondita
Assay: Puccinia Test (wheat)/curative
Format: in vivo
Details: curative, application rate 250 g/ha, evaluation 10 days after inoculation
Protocol: Puccinia Test (wheat)/curative Solvent: 25 parts by weight of N,N-dimethylacetamide Emulsifier: 0.6 part by weight of alkylaryl polyglycol ether To produce a suitable preparation of active compound, 1 part by weight of active compound is mixed with the stated amounts of solvent and emulsifier, and the concentrate is diluted with water to the desired concentration. To test for curative activity, young plants are sprayed with a conidia suspension of Puccinia recondita. The plants remain in an incubation cabin at 20° C. and 100% relative atmospheric humidity for 48 hours. The plants are then sprayed with the preparation of active compound at the stated application rate. The plants are placed in a greenhouse at a temperature of about 20° C. and a relative atmospheric humidity of about 80% to promote the development of rust pustules.

| SMILES | efficacy [%] |
| --- | --- |
| CNC(=O)C(=NOCF)c1ccccc1COc1ccn(-c2ccc(Cl)cc2)n1 [Example 2, 2-[2-({[1-(4-chlorophenyl)-1H-pyrazol-3-yl]oxy}methyl)phenyl]-2-[(fluoromethoxy)imino]-N-methylacetamide] | ≥ 98 |

Tested on: Erysiphe graminis f.sp. hordei
Assay: Erysiphe Test (barley)/protective
Format: in vivo
Details: protective, application rate 250 g/ha, evaluation 7 days after inoculation
Protocol: Erysiphe Test (barley)/protective Solvent: 25 parts by weight of N,N-dimethylacetamide Emulsifier: 0.6 part by weight of alkylaryl polyglycol ether To produce a suitable preparation of active compound, 1 part by weight of active compound is mixed with the stated amounts of solvent and emulsifier, and the concentrate is diluted with water to the desired concentration. To test for protective activity, young plants are sprayed with the preparation of active compound at the stated application rate. After the spray coating has dried on, the plants are dusted with spores of Erysiphe graminis f.sp. hordei. The plants are placed in a greenhouse at a temperature of about 20° C. and a relative atmospheric humidity of about 80% to promote the development of mildew pustules.

| SMILES | efficacy [%] |
| --- | --- |
| CNC(=O)C(=NOCF)c1ccccc1COc1ccn(-c2ccc(Cl)cc2)n1 [Example 2, 2-[2-({[1-(4-chlorophenyl)-1H-pyrazol-3-yl]oxy}methyl)phenyl]-2-[(fluoromethoxy)imino]-N-methylacetamide] | ≥ 98 |

Tested on: Puccinia recondita
Assay: Puccinia Test (wheat)/protective
Format: in vivo
Details: protective, application rate 250 g/ha, evaluation 10 days after inoculation
Protocol: Puccinia Test (wheat)/protective Solvent: 25 parts by weight of N,N-dimethylacetamide Emulsifier: 0.6 part by weight of alkylaryl polyglycol ether To produce a suitable preparation of active compound, 1 part by weight of active compound is mixed with the stated amounts of solvent and emulsifier, and the concentrate is diluted with water to the desired concentration. To test for protective activity, young plants are sprayed with the preparation of active compound at the stated application rate. After the spray coating has dried on, the plants are sprayed with a conidia suspension of Puccinia recondita. The plants remain in an incubation cabin at 20° C. and 100% relative atmospheric humidity for 48 hours. The plants are then placed in a greenhouse at a temperature of about 20° C. and a relative atmospheric humidity of 80% to promote the development of rust pustules.

| SMILES | efficacy [%] |
| --- | --- |
| COC(=O)C(=NOCF)c1ccccc1COc1ccn(-c2ccc(Cl)cc2)n1 [Example 1, methyl 2-[2-({[1-(4-chlorophenyl)-1H-pyrazol-3-yl]oxy}methyl)phenyl]-2-[(fluoromethoxy)imino]acetate] | ≥ 98 |

Tested on: green peach aphid (Myzus persicae)
Assay: Myzus Test
Format: in vivo
Details: broad bean seedlings (Vicia faba) dipped, concentration of active compound 1000 ppm
Protocol: Myzus Test Solvent: 30 parts by weight of acetone Emulsifier: 1 part by weight of alkylaryl polyglycol ether To produce a suitable preparation of active compound, 1 part by weight of active compound is mixed with the stated amounts of solvent and emulsifier, […], and the concentrate is diluted with emulsifier-containing water to the desired concentrations. Broad bean seedlings (Vicia faba) infested by the green peach aphid (Myzus persicae) are dipped into a preparation of active compound of the desired concentration and placed in a dish made of plastic. After the desired period of time, the kill in % is determined. 100% means that all animals have been killed; 0% means that none of the animals have been killed.

| SMILES | kill rate [%] |
| --- | --- |
| COC(=O)C(=NOCF)c1ccccc1COc1ccn(-c2ccc(Cl)cc2)n1 [Example 1, methyl 2-[2-({[1-(4-chlorophenyl)-1H-pyrazol-3-yl]oxy}methyl)phenyl]-2-[(fluoromethoxy)imino]acetate] | 95 |

Tested on: larvae of the mustard beetle (Phaedon cochleariae)
Assay: Phaedon Larvae Test
Format: in vivo
Details: cabbage leaves (Brassica oleracea) dipped, concentration of active compound 1000 ppm
Protocol: Phaedon Larvae Test Solvent: 30 parts by weight of acetone Emulsifier: 1 part by weight of alkylaryl polyglycol ether To produce a suitable preparation of active compound, 1 part by weight of active compound is mixed with the stated amounts of solvent and emulsifier, and the concentrate is diluted with emulsifier-containing water to the desired concentration. Cabbage leaves (Brassica oleracea) are treated by being dipped into the preparation of active compound of the desired concentration and are populated with larvae of the mustard beetle (Phaedon cochleariae) while the leaves are still moist. After the desired period of time, the kill in % is determined. 100% means that all beetle larvae have been killed; 0% means that none of the beetle larvae have been killed.

| SMILES | kill rate [%] |
| --- | --- |
| COC(=O)C(=NOCF)c1ccccc1COc1ccn(-c2ccc(Cl)cc2)n1 [Example 1, methyl 2-[2-({[1-(4-chlorophenyl)-1H-pyrazol-3-yl]oxy}methyl)phenyl]-2-[(fluoromethoxy)imino]acetate] | 100 |
